Measurements: patent US7015345B2, “Propionic acid derivatives” (Asahi Kasei Pharma Corporation, priority 2002, dated 2006)
Read-outs that look alike come from different tables or passages of the source.

Experiments:
db/db mice = assay: Hypoglycemic action and triglyceride-decreasing action in db/db mice; assay type: in vivo; conditions: Mus musculus, 360 h; for inhibition in vivo at 1 mg/kg: 1 mg/kg oral once a day for 2 weeks; for inhibition in vivo at 3 mg/kg: 3 mg/kg oral once a day for 2 weeks
Experimental: Test for Measuring Hypoglycemic Action and Triglyceride-Decreasing Action in db/db Mice
Each of test compounds was administered once a day for 2 weeks to db/db mice genetically presenting pathological conditions of obesity, hyperglycemia, and hyperlipidemia. Blood was collected from the mice immediately before the start of administration of a test sample or a vehicle on the first day. Plasma glucose levels and triglyceride levels were measured, and the mice were divided into groups so that average glucose levels and triglyceride levels gave no significant value among the groups. All the test samples were suspended in a 0.5% methylcellulose (MC) solution and orally administered. For a vehicle-administered control group, a 0.5% MC solution was orally administered. Blood samples were collected from the mice on the 15th day, and plasma glucose levels and triglyceride levels were measured. A hypoglycemic rate and triglyceride-reducing rate were calculated by using the following equations.

[1] = tested on: hamsters fed with high cholesterol diet; assay: Total plasma cholesterol and non-HDL cholesterol reducing action in hamster fed high cholesterol diet; assay type: in vivo; conditions: Mesocricetus auratus, 192 h, hamsters on high cholesterol diet, 10 mg/kg oral once a day for one week, plasma on 8th day
Experimental: Test for Measuring Total Plasma Cholesterol Reducing Action and Non-HDL Cholesterol (VLDL Cholesterol+LDL Cholesterol) Reducing Action in Hamster
A test compound (10 mg/kg) was administered once a day for one week to hamsters fed with high cholesterol diet (CE-2 (Clea Japan)+1% cholesterol+10% coconut oil) for five days. The plasma cholesterol level and the plasma HDL cholesterol level were measured immediately before the start of the administration of the test sample or vehicle on the 1st day, and the hamsters were divided into groups so that the groups gave no significant value of initial levels of the both measurements. Each of the test samples was dissolved in a 0.5% methylcellulose (MC) solution and orally administered. A 0.5% methylcellulose (MC) solution was orally administered to the hamsters as a vehicle control group. A blood sample was collected on the 8th day, and the plasma cholesterol level and the plasma HDL cholesterol level were measured. The total cholesterol reducing rate was obtained by using the following equation. [formula]
Further, non-HDL cholesterol level (LDL cholesterol level+VLDL cholesterol level) was calculated as (Total cholesterol level−HDL cholesterol level), and the reducing rate thereof was calculated by using the following equation. [formula]

Zucker rats = assay: Liver triglyceride contents in Zucker rats; assay type: in vivo; conditions: Rattus norvegicus, 336 h, 1 mg/kg once a day for 2 weeks, read-out: Triglyceride reducing rate (%)
Experimental: Measurement of Liver Triglyceride Contents in Zucker Rats
To Zucker rats, a vehicle (0.5% MC), a compound of the present invention or fenofibrate (Sigma) was administered once a day for 2 weeks. The livers were isolated on the next day of the final administration, and amounts of triglyceride in the livers were determined. Triglyceride was extracted by adding 5 ml of a mixture of hexane and isopropanol (2:1, V/V) to 100 mg of liver, homogenizing the liver using Polytron homogenizer, then sufficiently stirring and centrifuging the homogenate at 2000 g for 10 minutes at room temperature. The amount of triglyceride in the solution layer was measured.

[2] = tested on: 3T3-L1 precursor adipocytes; assay: Uptake of glucose by adipocytes ([3H]-2-deoxy-glucose uptake); assay type: cell-based; conditions: Mus musculus, 100 nM compound, 4 to 5 days culture, 100 nM insulin stimulation, relative to 10 μM rosiglitazone taken as 100%, read-out: Amount of glucose uptake (%)
Experimental: (§1) Test for Uptake of Glucose By Adipocytes and Test for Triglyceride Accumulation in Adipocytes
According to the method of Mukherjee et al. (Mol. Endocrinol, 14, 1425–1433, 2000), a glucose uptake experiment was performed by using cultured cells. 3T3-L1 precursor adipocytes were cultured for 4 to 5 days in the presence of a test compound, and then stimulated with 100 nM insulin, and then the amount of [^3H]-2-deoxy-glucose (2DG) uptake by the cells was measured. The amount of glucose uptake provided after the treatment with 100 nM of each compound was measured, and represented as a relative value based on the amount of glucose uptake provided after the treatment with 10 μM rosiglitazone, which was taken as 100%.

[3] = tested on: 3T3-L1 precursor adipocytes; assay: Triglyceride accumulation in adipocytes; assay type: cell-based; conditions: Mus musculus, 100 nM compound, 4 to 5 days culture, relative to 10 μM rosiglitazone taken as 100%, read-out: Amount of accumulated triglyceride (%)
Experimental: as §1
Further, 3T3-L1 precursor adipocytes were cultured for 4 to 5 days in the presence of a test compound, and then the amount of triglyceride in the cells was measured according to the method of Shibata T et al. (Eur. J. Pharmacol., 364 (2–3), 211–219, 1999). The amount of accumulated triglyceride provided after the treatment with 100 nM of each compound was measured, and represented as a relative value based on the amount of accumulated triglyceride provided after the treatment with 10 μM rosiglitazone, which was taken as 100%.

[4] = plasma glucose on 15th day vs vehicle, read-out: Hypoglycemic rate (%)
[5] = plasma triglyceride on 15th day vs vehicle, read-out: Triglyceride reducing rate (%)
[6] = non-HDL = total cholesterol - HDL cholesterol, read-out: Non-HDL cholesterol reducing rate (%)
[7] = read-out: Total cholesterol reducing rate (%)

SMILES | inhibition in vivo at 1 mg/kg (db/db mice; [4]) [%] | inhibition in vivo at 1 mg/kg (db/db mice; [5]) [%] | inhibition in vivo at 10 mg/kg [1, 6] [%] | inhibition in vivo at 10 mg/kg [1, 7] [%] | inhibition in vivo at 1 mg/kg (Zucker rats) [%] | Emax at 0.1 µM [2] [%] | Emax at 0.1 µM [3] [%] | inhibition in vivo at 3 mg/kg (db/db mice; [4]) [%] | inhibition in vivo at 3 mg/kg (db/db mice; [5]) [%]
CCCCCCCN(CCOc1ccc(CC(OCCC)C(=O)O)cc1)C(=O)OC (stereo not drawn) [Example 120, 3-{4-[2-(N-heptyl-N-methoxycarbonylamino)ethoxy]phenyl}-2-propoxypropionic acid] | 39 | 48 | 25 | 28 | 28 | 90 | 88 |  | 
CCCCOCCN(CCOc1ccc(CC(OCC)C(=O)O)cc1)C(=O)OC(C)C (stereo not drawn) [Example 122, 3-(4-{2-[N-(2-butoxyethyl)-N-isopropoxycarbonylamino]ethoxy}phenyl)-2-ethoxypropionic acid] |  |  | 9 | 10 | 2 | 92 | 90 | 14 | 21
CCCCOCCN(CCOc1ccc(CC(OCC)C(=O)O)cc1)C(=O)OCC(C)C (stereo not drawn) [Example 123, 3-(4-{2-[N-(2-butoxyethyl)-N-isobutoxycarbonylamino]ethoxy}phenyl)-2-ethoxypropionic acid] |  |  | 25 | 25 | 35 | 99 | 96 | 8 | 32
CCCCCCCN(CCOc1ccc(CC(OC(C)C)C(=O)O)cc1)C(=O)OC(C)C (stereo not drawn) [Example 125, 3-{4-[2-(N-heptyl-N-isopropoxycarbonylamino)ethoxy]phenyl}-2-isopropoxypropionic acid] | 42 | 64 | 48 | 45 | 36 | 97 | 98 |  | 
CCCCOCCN(CCOc1ccc(CC(OC(C)C)C(=O)O)cc1)C(=O)OC(C)C (stereo not drawn) [Example 130, 3-(4-{2-[N-(2-butoxyethyl)-N-isopropoxycarbonylamino]ethoxy}phenyl)-2-isopropoxypropionic acid] | 41 | 40 | 22 | 22 | 32 | 92 | 90 |  | 
CCCCOCCN(CCOc1ccc(CC(OC(C)C)C(=O)O)cc1)C(=O)OCC(C)C (stereo not drawn) [Example 132, 3-(4-{2-[N-(2-butoxyethyl)-N-isobutoxycarbonylamino]ethoxy}phenyl)-2-isopropoxypropionic acid] | 7 | 14 | 20 | 18 | 39 | 96 | 97 |  | 
